pIC50: −log10 of the molar value. Read-outs that look alike come from different tables or passages of the source. Values belong to the compound of their own block, whether it stands above or below them.
What was measured:
Assay type in all cases: biochemical
PDE1B = molecular target: T1, PDE1B (Homo sapiens, UniProt Q01064); experiment: Phosphodiesterase enzyme screening assay, PDE1B
T1 construct: purchased Reaction Biology Corporation, Malvern, Pa
Outline: (§1)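 Human PDE isoforms were incubated 1 h at room temperature with 4.0 μM fluorescent cGMP substrate in 100 mM HEPES pH 7.5, 5 mM MgCl2, 1 mM DTT, 0.003% Brij. EDTA stop buffer ended reactions, and substrate and 5′-GMP product were separated by microfluidic electrophoretic mobility shift with laser-induced fluorescence. Inhibition was calculated against control wells.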

PDE9A2 = molecular target: T2, PDE9A2 (Homo sapiens, UniProt O76083); experiment: Phosphodiesterase enzyme screening assay, PDE9A2
T2 construct: purchased Reaction Biology Corporation, Malvern, Pa
Outline: as §1

PDE1A = molecular target: T3, PDE1A (Homo sapiens, UniProt P54750); experiment: Phosphodiesterase enzyme screening assay, PDE1A
T3 construct: purchased Reaction Biology Corporation, Malvern, Pa
Outline: as §1

[1] = Table 1, ratio of IC50 values, value greater than 1 indicates greater selectivity for PDE9A2
[2] = Table 1, 10 concentrations, 4.0 μM cGMP substrate, 1 hour at R.T., read-out: Band (PDE9A2 IC50)
[3] = ratio of IC50 values, PDE1B versus PDE9A2, value greater than 1 = greater selectivity for PDE9A2
[4] = Table 3, 4.0 μM cGMP substrate, 1 hour at R.T., read-out: Band (PDE9A2 IC50)
[5] = ratio of IC50 values, PDE1A versus PDE9A2, value greater than 1 = greater selectivity for PDE9A2
[6] = ratio of IC50 values, value greater than 1 indicates greater selectivity for PDE9A2
[7] = ratio of IC50 values PDE1B / PDE9A2, value greater than 1 = greater selectivity for PDE9A2
[8] = 4.0 μM cGMP substrate, 1 hour at R.T., read-out: Band (PDE9A2 IC50)
[9] = ratio of IC50 values PDE1A / PDE9A2, value greater than 1 = greater selectivity for PDE9A2
[10] = Table 2, ratio of IC50 values, value greater than 1 indicates greater selectivity for PDE9A2
[11] = ratio of IC50 values, PDE1B versus PDE9A2, value greater than 1 indicates greater selectivity for PDE9A2
[12] = ratio of IC50 values, PDE1A versus PDE9A2, value greater than 1 indicates greater selectivity for PDE9A2
[13] = ratio of IC50 values PDE1B vs PDE9A2, value greater than 1 indicates greater selectivity for PDE9A2
[14] = IC50 band, 4.0 μM cGMP substrate, 1 hour at R.T.
[15] = ratio of IC50 values PDE1A vs PDE9A2, value greater than 1 indicates greater selectivity for PDE9A2

T2 sequence (O76083 1-533 isoform O76083-2): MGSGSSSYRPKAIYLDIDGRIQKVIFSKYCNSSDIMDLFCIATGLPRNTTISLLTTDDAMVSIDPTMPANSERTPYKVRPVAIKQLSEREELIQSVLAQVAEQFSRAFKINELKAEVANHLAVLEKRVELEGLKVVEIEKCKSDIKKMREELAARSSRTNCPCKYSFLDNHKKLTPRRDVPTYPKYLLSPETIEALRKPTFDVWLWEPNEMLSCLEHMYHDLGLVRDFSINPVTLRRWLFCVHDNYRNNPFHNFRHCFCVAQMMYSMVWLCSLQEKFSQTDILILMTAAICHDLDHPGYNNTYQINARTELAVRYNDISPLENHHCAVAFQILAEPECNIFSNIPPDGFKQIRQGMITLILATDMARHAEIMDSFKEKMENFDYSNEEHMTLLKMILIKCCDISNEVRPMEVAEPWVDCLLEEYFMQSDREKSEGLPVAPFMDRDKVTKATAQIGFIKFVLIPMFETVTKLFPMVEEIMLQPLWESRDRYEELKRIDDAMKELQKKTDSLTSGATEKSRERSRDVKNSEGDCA
T1 sequence (Q01064 whole entry): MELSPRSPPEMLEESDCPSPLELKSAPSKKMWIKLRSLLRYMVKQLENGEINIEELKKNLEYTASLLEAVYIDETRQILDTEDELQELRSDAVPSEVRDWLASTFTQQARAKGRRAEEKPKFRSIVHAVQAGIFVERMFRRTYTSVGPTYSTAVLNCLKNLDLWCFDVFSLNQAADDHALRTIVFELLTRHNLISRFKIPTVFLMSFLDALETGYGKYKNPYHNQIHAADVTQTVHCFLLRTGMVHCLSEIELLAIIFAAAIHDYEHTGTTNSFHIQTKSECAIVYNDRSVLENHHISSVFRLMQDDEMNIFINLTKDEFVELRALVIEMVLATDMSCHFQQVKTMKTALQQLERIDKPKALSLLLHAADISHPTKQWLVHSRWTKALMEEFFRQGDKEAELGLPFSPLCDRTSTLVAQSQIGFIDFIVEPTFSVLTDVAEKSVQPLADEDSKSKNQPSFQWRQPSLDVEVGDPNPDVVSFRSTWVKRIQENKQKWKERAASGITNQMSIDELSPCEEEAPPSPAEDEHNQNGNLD
T3 sequence (P54750 whole entry): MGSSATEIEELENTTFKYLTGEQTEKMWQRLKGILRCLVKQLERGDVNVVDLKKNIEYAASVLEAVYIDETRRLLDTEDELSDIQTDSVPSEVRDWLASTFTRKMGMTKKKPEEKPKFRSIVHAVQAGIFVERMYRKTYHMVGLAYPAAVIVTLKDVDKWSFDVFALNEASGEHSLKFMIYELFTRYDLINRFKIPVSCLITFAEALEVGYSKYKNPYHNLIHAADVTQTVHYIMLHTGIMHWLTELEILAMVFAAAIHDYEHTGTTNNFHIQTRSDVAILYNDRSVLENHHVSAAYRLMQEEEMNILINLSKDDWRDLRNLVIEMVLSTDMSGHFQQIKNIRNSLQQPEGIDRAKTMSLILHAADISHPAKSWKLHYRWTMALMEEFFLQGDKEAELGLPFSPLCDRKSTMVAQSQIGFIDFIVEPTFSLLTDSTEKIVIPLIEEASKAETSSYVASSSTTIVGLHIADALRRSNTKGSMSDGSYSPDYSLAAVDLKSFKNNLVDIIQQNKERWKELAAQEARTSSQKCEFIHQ

PDE1B selectivity (versus PDE9A2) (PDE1B; [1]): 987
pIC50 (PDE9A2; [2]): > 6.00
PDE1A selectivity (versus PDE9A2) (PDE1A; [1]): 471
Compound: CC1CN(Cc2ccnc3ccccc23)CC1c1nn2c(C3CCOCC3)ncc2c(=O)[nH]1 (single isomer, unassigned; (+)) [(+)-2-((3,4-trans)-4-methyl-1-(quinolin-4-ylmethyl)pyrrolidin-3-yl)-7-(tetrahydro-2H-pyran-4-yl)imidazo[5,1-f][1,2,4]triazin-4(3H)-one]

PDE1B selectivity (versus PDE9A2) (PDE1B; [1]): 1525
pIC50 (PDE9A2; [2]): > 6.00
PDE1A selectivity (versus PDE9A2) (PDE1A; [1]): 520
Compound: CC1CN(Cc2ccc3ncccc3c2)CC1c1nn2c(C3CCOCC3)ncc2c(=O)[nH]1 (single isomer, unassigned; (+)) [(+)-2-((3,4-trans)-4-methyl-1-(quinolin-6-ylmethyl)pyrrolidin-3-yl)-7-(tetrahydro-2H-pyran-4-yl)imidazo[5,1-f][1,2,4]triazin-4(3H)-one]

PDE1B selectivity (versus PDE9A2) (PDE1B; [3]): 673
pIC50 (PDE9A2; [4]): > 6.00
PDE1A selectivity (versus PDE9A2) (PDE1A; [5]): 647
Compound: CC1CN(Cc2cccc3cccnc23)CC1c1nn2c(C3CCOCC3)ncc2c(=O)[nH]1 (single isomer, unassigned; (+)) [(+)-2-((3,4-trans)-4-methyl-1-(quinolin-8-ylmethyl)pyrrolidin-3-yl)-7-(tetrahydro-2H-pyran-4-yl)imidazo[5,1-f][1,2,4]triazin-4(3H)-one]

PDE1B selectivity (versus PDE9A2) (PDE1B; [1]): 1130
pIC50 (PDE9A2; [2]): > 6.00
PDE1A selectivity (versus PDE9A2) (PDE1A; [1]): 453
Compound: CC1CN(Cc2cnc3ccccc3n2)CC1c1nn2c(C3CCOCC3)ncc2c(=O)[nH]1 (single isomer, unassigned; (+)) [(+)-2-((3,4-trans)-4-methyl-1-(quinoxalin-2-ylmethyl)pyrrolidin-3-yl)-7-(tetrahydro-2H-pyran-4-yl)imidazo[5,1-f][1,2,4]triazin-4(3H)-one]

PDE1B selectivity (versus PDE9A2) (PDE1B; [7]): 140
pIC50 (PDE9A2; [8]): > 6.00
PDE1A selectivity (versus PDE9A2) (PDE1A; [9]): 91
Compound: CC1CN(Cc2cccs2)CC1c1nn2c(C3CCOCC3)ncc2c(=O)[nH]1 (single isomer, unassigned; (+)) [(+)-2-((3,4-trans)-4-methyl-1-(thiophen-2-ylmethyl)pyrrolidin-3-yl)-7-(tetrahydro-2H-pyran-4-yl)imidazo[5,1-f][1,2,4]triazin-4(3H)-one]

PDE1B selectivity (versus PDE9A2) (PDE1B; [1]): 23
pIC50 (PDE9A2; [2]): > 6.00
PDE1A selectivity (versus PDE9A2) (PDE1A; [1]): 28
Compound: CC1CN(CCc2ccccc2)CC1c1nn2c(C3CCOCC3)ncc2c(=O)[nH]1 (single isomer, unassigned; (+)) [(+)-2-((3,4-trans)-4-methyl-1-phenethylpyrrolidin-3-yl)-7-(tetrahydro-2H-pyran-4-yl)imidazo[5,1-f][1,2,4]triazin-4(3H)-one]

Further lines, the compound ahead of its results:

Compound: CC1CN(Cc2nccs2)CC1c1nn2c(C3CCOCC3)ncc2c(=O)[nH]1 (single isomer, unassigned; (+)) [(+)-2-((3,4-trans)-4-methyl-1-(thiazol-2-ylmethyl)pyrrolidin-3-yl)-7-(tetrahydro-2H-pyran-4-yl)imidazo[5,1-f][1,2,4]triazin-4(3H)-one]
PDE1B selectivity (versus PDE9A2) (PDE1B; [6]): 147
pIC50 (PDE9A2; read-out: Band (PDE9A2 IC50)): > 6.00
PDE1A selectivity (versus PDE9A2) (PDE1A; [6]): 150

Compound: CC1CN(Cc2ccsc2)CC1c1nn2c(C3CCOCC3)ncc2c(=O)[nH]1 (single isomer, unassigned; (+)) [(+)-2-((3,4-trans)-4-methyl-1-(thiophen-3-ylmethyl)pyrrolidin-3-yl)-7-(tetrahydro-2H-pyran-4-yl)imidazo[5,1-f][1,2,4]triazin-4(3H)-one]
PDE1B selectivity (versus PDE9A2) (PDE1B; [3]): 209
pIC50 (PDE9A2; [4]): > 6.00
PDE1A selectivity (versus PDE9A2) (PDE1A; [5]): 176

Compound: CC1CN(Cc2ccccc2C#N)CC1c1nn2c(C3CCOCC3)ncc2c(=O)[nH]1 (single isomer, unassigned; (+)) [(+)-2-(((3,4-trans)-3-methyl-4-(4-oxo-7-(tetrahydro-2H-pyran-4-yl)-3,4-dihydroimidazo[5,1-f][1,2,4]triazin-2-yl)pyrrolidin-1-yl)methyl)benzonitrile]
PDE1B selectivity (versus PDE9A2) (PDE1B; [1]): 220
pIC50 (PDE9A2; [2]): > 6.00
PDE1A selectivity (versus PDE9A2) (PDE1A; [1]): 241

Compound: CC1CN(Cc2ncc(C#N)cn2)CC1c1nn2c(C3CCOCC3)ncc2c(=O)[nH]1 (single isomer, unassigned; (+)) [(+)-2-(((3,4-trans)-3-methyl-4-(4-oxo-7-(tetrahydro-2H-pyran-4-yl)-3,4-dihydroimidazo[5,1-f][1,2,4]triazin-2-yl)pyrrolidin-1-yl)methyl)pyrimidine-5-carbonitrile]
PDE1B selectivity (versus PDE9A2) (PDE1B; [10]): 65
pIC50 (PDE9A2; Table 2, 10 concentrations, 4.0 μM cGMP substrate, 1 hour at R.T., read-out: Band (PDE9A2 IC50)): > 6.00
PDE1A selectivity (versus PDE9A2) (PDE1A; [10]): 22

Compound: CC1CN(Cc2ccc(F)c(C#N)c2)CC1c1nn2c(C3CCOCC3)ncc2c(=O)[nH]1 (single isomer, unassigned; (+)) [(+)-2-fluoro-5-(((3,4-trans)-3-methyl-4-(4-oxo-7-(tetrahydro-2H-pyran-4-yl)-3,4-dihydroimidazo[5,1-f][1,2,4]triazin-2-yl)pyrrolidin-1-yl)methyl)benzonitrile]
PDE1B selectivity (versus PDE9A2) (PDE1B; [7]): 58
pIC50 (PDE9A2; [8]): > 6.00
PDE1A selectivity (versus PDE9A2) (PDE1A; [9]): 61

Compound: CC1CN(Cc2cccc(C#N)c2)CC1c1nn2c(C3CCOCC3)ncc2c(=O)[nH]1 (single isomer, unassigned; (+)) [(+)-3-(((3,4-trans)-3-methyl-4-(4-oxo-7-(tetrahydro-2H-pyran-4-yl)-3,4-dihydroimidazo[5,1-f][1,2,4]triazin-2-yl)pyrrolidin-1-yl)methyl)benzonitrile]
PDE1B selectivity (versus PDE9A2) (PDE1B; [1]): 343
pIC50 (PDE9A2; [2]): > 6.00
PDE1A selectivity (versus PDE9A2) (PDE1A; [1]): 942

Compound: CC1CN(Cc2ncccn2)CC1c1nn2c(-c3ccccc3F)ncc2c(=O)[nH]1 (single isomer, unassigned; (+)) [(+)-7-(2-fluorophenyl)-2-((3,4-trans)-4-methyl-1-(pyrimidin-2-ylmethyl)pyrrolidin-3-yl)imidazo[5,1-f][1,2,4]triazin-4(3H)-one]
PDE1B selectivity (versus PDE9A2) (PDE1B; ratio of IC50 values PDE1B / PDE9A2, value greater than 1 indicates greater selectivity for PDE9A2): 39
pIC50 (PDE9A2; [8]): > 6.00
PDE1A selectivity (versus PDE9A2) (PDE1A; ratio of IC50 values PDE1A / PDE9A2, value greater than 1 indicates greater selectivity for PDE9A2): 19

Compound: CC1CN(Cc2ccccn2)CC1c1nn2c(-c3cccc(F)c3)ncc2c(=O)[nH]1 (single isomer, unassigned; (+)) [(+)-7-(3-fluorophenyl)-2-((3,4-trans)-4-methyl-1-(pyridin-2-ylmethyl)pyrrolidin-3-yl)imidazo[5,1-f][1,2,4]triazin-4(3H)-one]
PDE1B selectivity (versus PDE9A2) (PDE1B; [11]): 236
pIC50 (PDE9A2; read-out: Band (PDE9A2 IC50)): > 6.00
PDE1A selectivity (versus PDE9A2) (PDE1A; [12]): 190

Compound: CC1CN(Cc2cccnc2)CC1c1nn2c(-c3cccc(F)c3)ncc2c(=O)[nH]1 (single isomer, unassigned; (+)) [(+)-7-(3-fluorophenyl)-2-((3,4-trans)-4-methyl-1-(pyridin-3-ylmethyl)pyrrolidin-3-yl)imidazo[5,1-f][1,2,4]triazin-4(3H)-one]
PDE1B selectivity (versus PDE9A2) (PDE1B; [11]): 37
pIC50 (PDE9A2; read-out: Band (PDE9A2 IC50)): > 6.00
PDE1A selectivity (versus PDE9A2) (PDE1A; [12]): 15

Compound: CC1CN(Cc2cn3ccccc3n2)CC1c1nn2c(C3CCC(F)(F)CC3)ncc2c(=O)[nH]1 (single isomer, unassigned; (+)) [(+)-7-(4,4-difluorocyclohexyl)-2-((3,4-trans)-1-(imidazo[1,2-a]pyridin-2-ylmethyl)-4-methylpyrrolidin-3-yl)imidazo[5,1-f][1,2,4]triazin-4(3H)-one]
PDE1B selectivity (versus PDE9A2) (PDE1B; [13]): 1659
pIC50 (PDE9A2; [14]): > 6.00
PDE1A selectivity (versus PDE9A2) (PDE1A; [15]): 405

Compound: CC1CN(Cc2cnccn2)CC1c1nn2c(C3CCC(F)(F)CC3)ncc2c(=O)[nH]1 (single isomer, unassigned; (+)) [(+)-7-(4,4-difluorocyclohexyl)-2-((3,4-trans)-4-methyl-1-(pyrazin-2-ylmethyl)pyrrolidin-3-yl)imidazo[5,1-f][1,2,4]triazin-4(3H)-one]
PDE1B selectivity (versus PDE9A2) (PDE1B; [13]): 575
pIC50 (PDE9A2; [14]): > 6.00
PDE1A selectivity (versus PDE9A2) (PDE1A; [15]): 233

Compound: CC1CN(Cc2ccccn2)CC1c1nn2c(C3CCC(F)(F)CC3)ncc2c(=O)[nH]1 (single isomer, unassigned; (+)) [(+)-7-(4,4-difluorocyclohexyl)-2-((3,4-trans)-4-methyl-1-(pyridin-2-ylmethyl)pyrrolidin-3-yl)imidazo[5,1-f][1,2,4]triazin-4(3H)-one]
PDE1B selectivity (versus PDE9A2) (PDE1B; [13]): 362
pIC50 (PDE9A2; [14]): > 6.00
PDE1A selectivity (versus PDE9A2) (PDE1A; [15]): 167

Compound: CC1CN(Cc2cccnc2)CC1c1nn2c(C3CCC(F)(F)CC3)ncc2c(=O)[nH]1 (single isomer, unassigned; (+)) [(+)-7-(4,4-difluorocyclohexyl)-2-((3,4-trans)-4-methyl-1-(pyridin-3-ylmethyl)pyrrolidin-3-yl)imidazo[5,1-f][1,2,4]triazin-4(3H)-one]
PDE1B selectivity (versus PDE9A2) (PDE1B; [13]): 409
pIC50 (PDE9A2; [14]): > 6.00
PDE1A selectivity (versus PDE9A2) (PDE1A; [15]): 181
